For experiment [1], the species on record is Mus musculus. Put plainly: Compound was evaluated for its effective dose in the oral mouse cholesterol biosynthesis assay. It counts as functional.
A further experiment addresses T1, Squalene synthase (Rattus norvegicus, UniProt Q02769).
T1 sequence (Q02769 whole entry): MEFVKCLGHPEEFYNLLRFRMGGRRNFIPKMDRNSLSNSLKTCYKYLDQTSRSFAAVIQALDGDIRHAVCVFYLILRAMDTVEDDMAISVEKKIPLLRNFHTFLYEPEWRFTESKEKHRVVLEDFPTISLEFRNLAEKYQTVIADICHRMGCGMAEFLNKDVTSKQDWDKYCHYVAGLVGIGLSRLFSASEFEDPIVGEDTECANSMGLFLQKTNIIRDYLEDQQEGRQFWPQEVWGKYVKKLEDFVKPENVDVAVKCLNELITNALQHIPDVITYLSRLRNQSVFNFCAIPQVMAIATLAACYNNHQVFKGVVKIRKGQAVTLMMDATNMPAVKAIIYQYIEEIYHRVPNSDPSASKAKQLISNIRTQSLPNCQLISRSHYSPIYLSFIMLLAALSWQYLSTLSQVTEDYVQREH
The experiment in a line: Inhibitory activity against squalene synthase in rat liver; not active.

Experiment [2] has as its system Mus musculus. Put plainly: Ability to inhibit mouse hepatic cholesterol biosynthesis when dosed orally at 24 mg/kg. The experiment is classed as functional. As to conditions: route oral; call rule not given here.
For experiment [3], the system named is Mus musculus. The experiment in a line: Ability to inhibit mouse hepatic cholesterol biosynthesis when dosed orally at 6 mg/kg. The experiment is classed as functional. As to conditions: route oral.
Experiment [4] relates to Mus musculus. The experiment in a line: Ability to inhibit mouse hepatic cholesterol biosynthesis when dosed orally at 12 mg/kg. The experiment is classed as functional. Particulars: route oral.
A further experiment is filed under the species Rattus norvegicus. The experiment in a line: Dose required for inhibition of cholesterol biosynthesis in rats was determined. It counts as functional.
Setting [5] is: Mus musculus, po, read-out: ED50.

Our source for the ED50, Ki and inhibition in vivo values is ChEMBL document CHEMBL1128778 (Bioorg Med Chem Lett, 1995).

The term ED50 denotes the midpoint of the dose-response relation. Broadly, the inhibition in vivo is the drop in the measured response relative to a control, in per cent. Lower therefore signals little suppression.

For the compound `C=CCOC(=O)C1OC2(CCC(=C)[C@@H](OC(C)=O)[C@H](C)Cc3ccccc3)OC(C(=O)O)([C@H](OC(=O)/C=C/[C@@H](C)C[C@@H](C)CC)[C@H]2O)C1(O)C(=O)OCOC(=O)C(C)(C)C` (stereo partly drawn), the ED50 in the experiment listed under Mus musculus [1] (setting [5]) stood at 2 mg/kg. The Ki result at Squalene synthase is “Not Active”.
As to `C=C(CCC12OC(C(=O)NC(C)C)C(O)(C(=O)OCOC(=O)C(C)(C)C)C(C(=O)O)(O1)[C@H](OC(=O)/C=C/[C@@H](C)C[C@@H](C)CC)[C@H]2O)[C@@H](OC(C)=O)[C@H](C)Cc1ccccc1` (stereo partly drawn), in the experiment on Mus musculus [2], testing at 24 mg/kg gave an inhibition in vivo of 41%.
In the case of `C=C(CCC12OC(C(=O)OC)C(O)(C(=O)OCOC(=O)C(C)(C)C)C(C(=O)O)(O1)[C@H](OC(=O)/C=C/[C@@H](C)C[C@@H](C)CC)[C@H]2O)[C@@H](OC(C)=O)[C@H](C)Cc1ccccc1` (stereo partly drawn), in the experiment filed under Mus musculus [1] (setting [5]), the ED50 was 3.3 mg/kg. At Squalene synthase, the Ki result was “Not Active”.
`C=C(CCC12OC(C(=O)OCC(=O)OC(C)(C)C)C(O)(C(=O)OCOC(=O)C(C)(C)C)C(C(=O)O)(O1)[C@H](OC(=O)/C=C/[C@@H](C)C[C@@H](C)CC)[C@H]2O)[C@@H](OC(C)=O)[C@H](C)Cc1ccccc1` (stereo partly drawn) returned an inhibition in vivo at 24 mg/kg with Mus musculus [2] of 45%. Besides, the Ki entry at Squalene synthase is reported as “Not Active”.
Take `C=C(CCC12OC(C(=O)O)C(O)(C(=O)O)C(C(=O)O)(O1)[C@H](OC(=O)/C=C/[C@@H](C)C[C@@H](C)CC)[C@H]2O)[C@@H](OC(C)=O)[C@H](C)Cc1ccccc1` (stereo partly drawn) [ZARAGOZIC ACID A]: the median effective dose (ED50) in the experiment filed under Mus musculus [1] (setting [5]) is 100 mg/kg.
Consider `C=C(CCC12OC(C(=O)O)C(O)(C(=O)OCOC(=O)C(C)(C)C)C(C(=O)O)(O1)[C@H](OC(=O)/C=C/[C@@H](C)C[C@@H](C)CC)[C@H]2O)[C@@H](OC(C)=O)[C@H](C)Cc1ccccc1` (stereo partly drawn), for which testing at 24 mg/kg in the experiment with Mus musculus [2] gave an inhibition in vivo of 0%.
`C=C(CCC12OC(C(=O)OCCCC)C(O)(C(=O)OCOC(=O)C(C)(C)C)C(C(=O)O)(O1)[C@H](OC(=O)/C=C/[C@@H](C)C[C@@H](C)CC)[C@H]2O)[C@@H](OC(C)=O)[C@H](C)Cc1ccccc1` (stereo partly drawn): at 6 mg/kg the inhibition in vivo in the experiment with Mus musculus [3] was 18%. Moreover, at Squalene synthase, the Ki result is “Not Active”.
`C=C(CCC12OC(C(=O)NCCOC)C(O)(C(=O)OCOC(=O)C(C)(C)C)C(C(=O)O)(O1)[C@H](OC(=O)/C=C/[C@@H](C)C[C@@H](C)CC)[C@H]2O)[C@@H](OC(C)=O)[C@H](C)Cc1ccccc1` (stereo partly drawn) came in with an inhibition in vivo at 12 mg/kg in the experiment on Mus musculus [4] of 18%. Moreover, at Squalene synthase, the Ki entry is “Not Active”.
Turning to `C=C(CCC12OC(C(=O)OCCC(C)C)C(O)(C(=O)OCOC(C)=O)C(C(=O)O)(O1)[C@H](OC(=O)/C=C/[C@@H](C)C[C@@H](C)CC)[C@H]2O)[C@@H](OC(C)=O)[C@H](C)Cc1ccccc1` (stereo partly drawn), the ED50 in the experiment listed under Mus musculus [1] (setting [5]) was found to be 6 mg/kg.
For the compound `C=C(CCC12OC(C(=O)OCC)C(O)(C(=O)OCOC(=O)C(C)(C)C)C(C(=O)O)(O1)[C@H](OC(=O)/C=C/[C@@H](C)C[C@@H](C)CC)[C@H]2O)[C@@H](OC(C)=O)[C@H](C)Cc1ccccc1` (stereo partly drawn), the ED50 in the experiment listed under Mus musculus [1] (setting [5]) stood at 2.6 mg/kg; in the experiment listed under Rattus norvegicus it was 18 mg/kg. Also, on Squalene synthase, the Ki result was “Not Active”.
Turning to `C=C(CCC12OC(C(=O)OC(C)C)C(O)(C(=O)OCOC(=O)C(C)(C)C)C(C(=O)O)(O1)[C@H](OC(=O)/C=C/[C@@H](C)C[C@@H](C)CC)[C@H]2O)[C@@H](OC(C)=O)[C@H](C)Cc1ccccc1` (stereo partly drawn), the ED50 in the experiment listed under Mus musculus [1] (setting [5]) turned out to be 4 mg/kg. Further, the Ki entry at Squalene synthase is listed as “Not Active”.
In the experiment with Mus musculus [3], `C=C(CCC12OC(C(=O)OCC(=O)OC)C(O)(C(=O)OCOC(=O)C(C)(C)C)C(C(=O)O)(O1)[C@H](OC(=O)/C=C/[C@@H](C)C[C@@H](C)CC)[C@H]2O)[C@@H](OC(C)=O)[C@H](C)Cc1ccccc1` (stereo partly drawn) had an inhibition in vivo at 6 mg/kg of 0%. For the same compound, the Ki result at Squalene synthase was “Not Active”.
`C=C(CCC12OC(C(=O)OCCC(C)C)C(O)(C(=O)OCOC(=O)C(C)(C)C)C(C(=O)O)(O1)[C@H](OC(=O)/C=C/[C@@H](C)C[C@@H](C)CC)[C@H]2O)[C@@H](OC(C)=O)[C@H](C)Cc1ccccc1` (stereo partly drawn): the ED50 in the experiment filed under Mus musculus [1] and in the experiment filed under Mus musculus [1] (setting [5]) was 9 mg/kg in each case. The Ki result on Squalene synthase is recorded as “Not Active”.
`C=C(CCC12OC(C(=O)OCCC)C(O)(C(=O)OCOC(=O)C(C)(C)C)C(C(=O)O)(O1)[C@H](OC(=O)/C=C/[C@@H](C)C[C@@H](C)CC)[C@H]2O)[C@@H](OC(C)=O)[C@H](C)Cc1ccccc1` (stereo partly drawn): the 50% effective dose (ED50) in the experiment filed under Mus musculus [1] (setting [5]) was determined as 2 mg/kg. Further, at Squalene synthase, the Ki result is given as “Not Active”.
Take `C=C(CCC12OC(C(=O)OCCOC)C(O)(C(=O)OCOC(=O)C(C)(C)C)C(C(=O)O)(O1)[C@H](OC(=O)/C=C/[C@@H](C)C[C@@H](C)CC)[C@H]2O)[C@@H](OC(C)=O)[C@H](C)Cc1ccccc1` (stereo partly drawn): the inhibition in vivo at 6 mg/kg in the experiment on Mus musculus [3] stood at 18%. Besides, at Squalene synthase, the Ki entry is on record as “Not Active”.
